According to patent US10525073B2, “Method for improving kidney and/or heart function in patients with kidney disease” (MacKay Memorial Hospital, priority 2015, dated 2020):

Assays:
Format in all cases: in vivo, Sprague Dawley rats
[1] = tested on: CKD rats; assay: Uremic toxins (indoxyl sulfate, P-cresyl sulfate) in serum of CKD rats; settings: serum collected from CKD rats
Protocol: (§1) SD rats (about 10 weeks old) scheduled to undergo 5/6 nephrectomy or sham surgery were anesthetized by Zoletil 50/Xylazine (6 mg/1.3 mg/Kg, i.p.). Then, the left kidney was exposed, and the upper and lower poles were tied with a suture line, followed by right nephrectomy. The peritoneum and skin were then sutured, and the animals were returned to their individual cages. […] Two weeks after sham or 5/6 nephrectomy surgery, the animals were subjected to a 24-hour urine collection and non-invasive tail blood pressure measurement every 4 weeks. Four weeks after the surgery, rats underwent 5/6 nephrectomy or shame surgery were randomly assigned into two groups, i.e., the control and the telbivudine groups, in which the control group received saline treatment, and rats in the telbivudine group received telbivudine (10 mg/mL/Kg) treatment for 8 or 12 weeks. Animals were then sacrificed, and kidney and heart biopsy samples were obtained.
5/6 nephrectomy is a procedure in which one kidney of a test animal is removed and 2/3 of the remaining kidney is ablated, thereby mimics the progressive renal failure after loss of renal mass in humans. Briefly, approximately 50% of the remaining kidney of the rat was removed by polar excision 1-2 weeks after uni-nephrectomy. Then, the animals were randomly assigned to two groups, the telbivudine group and the control group. Rats in the telbivudine group were orally fed with telbivudine (at a dosage of 100 mg/Kg) for 4, 8 or 12 weeks, while the animals in the control group were given just the water. Blood and urine samples were respectively collected on designated days and analyzed for the levels of blood urine nitrogen (BUN), serum creatine (CR), and hepatic enzymes (i.e., alanine aminotransferase (ALT) and aspartate aminotransferase (AST)). Heart function was determined by monitoring the changes in diastolic parameter—Tissue Velocity Imaging (TVI_V), E/A ratio, and the strain in cardia muscle (C_strain), left ventrical mass (LVMASS). Animals were sacrificed after the experiments were finished, and kidney biopsy samples were obtained.
Indoxyl sulfate (IS) and P-cresyl sulfate (PCS) are uremic toxins that accumulate in the serum of CKD patients, and are known factors for causing heart problems in the CKD subjects.

[2] = tested on: IL-6, TGF-β, TIMP1 and COL-1-A1 in kidney tissue of CKD rats; assay: Quantitative RT-PCR of inflammatory genes in kidney tissue of CKD rats
Protocol: as §1
Total RNA was extracted from fresh frozen renal and heart tissues using the Trizol Reagent (Life Technologies), according to the manufacturer protocol. Briefly, renal cortex or heart tissue (150 mg) was homogenized with 1 ml Trizol, and RNA-containing aqueous phase was obtained by centrifugation. Following the precipitation of RNA by centrifugation with 0.5 volume isopropanol and purification with 75% ethanol, the extracted total RNA was dissolved in 80 μL nuclease-free deionized distilled water and stored at −20° C. The concentration and purity of RNA were determined by Nanodrop Spectrophotometer (Thermo Scientific). First-strand cDNAs were synthesized from template RNA (1 μg) using Transcriptor First Strand cDNA Synthesis Kit (Roche), according to the manufacturer's protocol. Real-time PCR was performed using 2 μL template in a 20-μL reaction containing 1 μM of each primer and 10 μLLightCyclerFastStartUniversal SYBR Green Master (ROX) (Roche). […]
5/6 nephrectomy is a procedure in which one kidney of a test animal is removed and 2/3 of the remaining kidney is ablated, thereby mimics the progressive renal failure after loss of renal mass in humans. […] Blood and urine samples were respectively collected on designated days and analyzed for the levels of blood urine nitrogen (BUN), serum creatine (CR), and hepatic enzymes (i.e., alanine aminotransferase (ALT) and aspartate aminotransferase (AST)). Heart function was determined by monitoring the changes in diastolic parameter—Tissue Velocity Imaging (TVI_V), E/A ratio, and the strain in cardia muscle (C_strain), left ventrical mass (LVMASS). […]

[3] = tested on: CKD rats; assay: Blood urine nitrogen (BUN) and serum creatine (CR) levels in 5/6 nephrectomy CKD rats; settings: 5/6 nephrectomy rats
Protocol: Sprague Dawley rats (7 weeks old) were kept in pathogen-free environment under 12:12 light-dark cycle with food and water provided ad libitum, ambient temperature and relative humidity were respectively set at 24±2° C. and 50±20%. All procedures involving animal studies of the present disclosure comply with the “Guideline for the Care and Use of Laboratory Animals” issued by The Chinese-Taipei Society of Laboratory Animal Sciences. SD rats (about 10 weeks old) scheduled to undergo 5/6 nephrectomy or sham surgery were anesthetized by Zoletil 50/Xylazine (6 mg/1.3 mg/Kg, i.p.). Then, the left kidney was exposed, and the upper and lower poles were tied with a suture line, followed by right nephrectomy. The peritoneum and skin were then sutured, and the animals were returned to their individual cages. For animals underwent sham surgery, the left kidney was exposed in similar manner, but was then placed back into the abdominal cavity without further treatment, peritoneum and skin were then sutured. Two weeks after sham or 5/6 nephrectomy surgery, the animals were subjected to a 24-hour urine collection and non-invasive tail blood pressure measurement every 4 weeks. Four weeks after the surgery, rats underwent 5/6 nephrectomy or shame surgery were randomly assigned into two groups, i.e., the control and the telbivudine groups, in which the control group received saline treatment, and rats in the telbivudine group received telbivudine (10 mg/mL/Kg) treatment for 8 or 12 weeks. Animals were then sacrificed, and kidney and heart biopsy samples were obtained. In this example, to evaluate the therapeutic function of telbivudine, animals were first subject to 5/6 nephrectomy to induce in vivo kidney failure before being treated with telbivudine. 5/6 nephrectomy is a procedure in which one kidney of a test animal is removed and 2/3 of the remaining kidney is ablated, thereby mimics the progressive renal failure after loss of renal mass in humans. Briefly, approximately 50% of the remaining kidney of the rat was removed by polar excision 1-2 weeks after uni-nephrectomy. Then, the animals were randomly assigned to two groups, the telbivudine group and the control group. […] Blood and urine samples were respectively collected on designated days and analyzed for the levels of blood urine nitrogen (BUN), serum creatine (CR), and hepatic enzymes (i.e., alanine aminotransferase (ALT) and aspartate aminotransferase (AST)). Heart function was determined by monitoring the changes in diastolic parameter-Tissue Velocity Imaging ([…] ratio, and the strain in cardia muscle (C_strain), left ventrical mass ([…]). Animals were sacrificed after the experiments were finished, and kidney biopsy samples were obtained.

[4] = telbivudine orally 100 mg/Kg for 8 weeks, vs untreated CKD
[5] = telbivudine orally 100 mg/Kg for 12 weeks

Question: `Cc1cn([C@@H]2C[C@@H](O)[C@H](CO)O2)c(=O)[nH]c1=O` [telbivudine] was tested. Which “free level of Indoxyl sulfate (IS)” value [1] did it give?
Answer: effectively reduced

Question: And the “free level of P-cresyl sulfate (PCS)” value [1]?
Answer: effectively reduced

Question: And the “total level of Indoxyl sulfate (IS)” value [1]?
Answer: effectively reduced

Question: What about the “total level of P-cresyl sulfate (PCS)” value [1] of the same compound?
Answer: effectively reduced

Question: What about the “mRNA level of COL-1-A1” value [2] of the same compound?
Answer: reduced

Question: And the “mRNA level of IL-6” value [2]?
Answer: reduced

Question: And the “mRNA level of TGF-β” value [2]?
Answer: reduced

Question: And the “mRNA level of TIMP1” value [2]?
Answer: reduced

Question: What about the “level of BUN (blood urine nitrogen)” value [3, 4] of the same compound?
Answer: significant reduction

Question: And the “level of CR (serum creatine)” value [3, 4]?
Answer: significant reduction

Question: And the “level of BUN (blood urine nitrogen)” value [3, 5]?
Answer: most significant

Question: What about the “level of CR (serum creatine)” value [3, 5] of the same compound?
Answer: most significant
